Data on 18 compounds can be found in patent US20220356174A1, “PYRIDIN-2-ONE COMPOUNDS USEFUL AS SMARCA2 ANTAGONISTS” (Epizyme, Inc., priority 2018, published 2022).

Some results are limits rather than exact numbers.

T1 sequence (P51531 with tags, fused parts or gaps): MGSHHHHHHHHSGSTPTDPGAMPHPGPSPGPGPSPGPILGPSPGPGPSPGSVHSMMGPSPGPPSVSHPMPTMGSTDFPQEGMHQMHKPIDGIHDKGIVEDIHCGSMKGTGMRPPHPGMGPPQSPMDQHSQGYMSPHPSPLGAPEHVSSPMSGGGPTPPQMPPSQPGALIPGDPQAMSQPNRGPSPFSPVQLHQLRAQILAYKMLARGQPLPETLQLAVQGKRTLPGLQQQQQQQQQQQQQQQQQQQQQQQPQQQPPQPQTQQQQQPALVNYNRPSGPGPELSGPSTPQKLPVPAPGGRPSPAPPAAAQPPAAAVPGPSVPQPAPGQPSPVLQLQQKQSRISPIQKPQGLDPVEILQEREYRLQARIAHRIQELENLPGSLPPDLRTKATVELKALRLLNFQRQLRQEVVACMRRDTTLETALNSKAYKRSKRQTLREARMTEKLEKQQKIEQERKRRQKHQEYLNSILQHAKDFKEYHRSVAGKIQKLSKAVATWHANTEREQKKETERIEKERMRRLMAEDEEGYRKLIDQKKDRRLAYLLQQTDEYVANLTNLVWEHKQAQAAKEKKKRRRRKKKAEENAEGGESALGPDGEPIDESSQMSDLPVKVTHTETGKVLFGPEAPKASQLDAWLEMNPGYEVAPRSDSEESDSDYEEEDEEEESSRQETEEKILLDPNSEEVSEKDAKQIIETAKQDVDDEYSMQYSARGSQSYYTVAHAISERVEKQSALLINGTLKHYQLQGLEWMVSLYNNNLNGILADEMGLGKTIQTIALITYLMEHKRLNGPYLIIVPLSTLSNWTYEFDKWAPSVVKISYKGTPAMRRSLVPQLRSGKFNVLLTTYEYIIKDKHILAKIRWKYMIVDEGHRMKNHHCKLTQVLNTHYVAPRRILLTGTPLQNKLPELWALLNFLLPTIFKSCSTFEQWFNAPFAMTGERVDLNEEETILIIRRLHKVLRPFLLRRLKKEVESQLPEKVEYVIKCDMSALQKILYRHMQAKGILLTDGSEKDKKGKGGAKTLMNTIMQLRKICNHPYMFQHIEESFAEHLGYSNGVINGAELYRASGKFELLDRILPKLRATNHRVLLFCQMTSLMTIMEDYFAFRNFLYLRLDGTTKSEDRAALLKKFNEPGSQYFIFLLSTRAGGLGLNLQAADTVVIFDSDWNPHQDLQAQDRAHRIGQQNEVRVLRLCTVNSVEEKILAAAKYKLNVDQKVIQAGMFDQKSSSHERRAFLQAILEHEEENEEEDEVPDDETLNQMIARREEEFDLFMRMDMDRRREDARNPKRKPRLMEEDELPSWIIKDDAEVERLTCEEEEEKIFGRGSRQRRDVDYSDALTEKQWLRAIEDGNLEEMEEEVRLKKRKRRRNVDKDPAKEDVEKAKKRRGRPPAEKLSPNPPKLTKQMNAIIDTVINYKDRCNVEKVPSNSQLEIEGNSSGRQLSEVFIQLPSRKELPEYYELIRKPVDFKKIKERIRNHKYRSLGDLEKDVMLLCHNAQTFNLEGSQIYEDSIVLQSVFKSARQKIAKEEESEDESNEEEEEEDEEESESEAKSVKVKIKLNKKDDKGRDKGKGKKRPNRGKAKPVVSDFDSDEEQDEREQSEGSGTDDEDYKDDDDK
Chain of FL-SMARCA4 (P51532 whole entry): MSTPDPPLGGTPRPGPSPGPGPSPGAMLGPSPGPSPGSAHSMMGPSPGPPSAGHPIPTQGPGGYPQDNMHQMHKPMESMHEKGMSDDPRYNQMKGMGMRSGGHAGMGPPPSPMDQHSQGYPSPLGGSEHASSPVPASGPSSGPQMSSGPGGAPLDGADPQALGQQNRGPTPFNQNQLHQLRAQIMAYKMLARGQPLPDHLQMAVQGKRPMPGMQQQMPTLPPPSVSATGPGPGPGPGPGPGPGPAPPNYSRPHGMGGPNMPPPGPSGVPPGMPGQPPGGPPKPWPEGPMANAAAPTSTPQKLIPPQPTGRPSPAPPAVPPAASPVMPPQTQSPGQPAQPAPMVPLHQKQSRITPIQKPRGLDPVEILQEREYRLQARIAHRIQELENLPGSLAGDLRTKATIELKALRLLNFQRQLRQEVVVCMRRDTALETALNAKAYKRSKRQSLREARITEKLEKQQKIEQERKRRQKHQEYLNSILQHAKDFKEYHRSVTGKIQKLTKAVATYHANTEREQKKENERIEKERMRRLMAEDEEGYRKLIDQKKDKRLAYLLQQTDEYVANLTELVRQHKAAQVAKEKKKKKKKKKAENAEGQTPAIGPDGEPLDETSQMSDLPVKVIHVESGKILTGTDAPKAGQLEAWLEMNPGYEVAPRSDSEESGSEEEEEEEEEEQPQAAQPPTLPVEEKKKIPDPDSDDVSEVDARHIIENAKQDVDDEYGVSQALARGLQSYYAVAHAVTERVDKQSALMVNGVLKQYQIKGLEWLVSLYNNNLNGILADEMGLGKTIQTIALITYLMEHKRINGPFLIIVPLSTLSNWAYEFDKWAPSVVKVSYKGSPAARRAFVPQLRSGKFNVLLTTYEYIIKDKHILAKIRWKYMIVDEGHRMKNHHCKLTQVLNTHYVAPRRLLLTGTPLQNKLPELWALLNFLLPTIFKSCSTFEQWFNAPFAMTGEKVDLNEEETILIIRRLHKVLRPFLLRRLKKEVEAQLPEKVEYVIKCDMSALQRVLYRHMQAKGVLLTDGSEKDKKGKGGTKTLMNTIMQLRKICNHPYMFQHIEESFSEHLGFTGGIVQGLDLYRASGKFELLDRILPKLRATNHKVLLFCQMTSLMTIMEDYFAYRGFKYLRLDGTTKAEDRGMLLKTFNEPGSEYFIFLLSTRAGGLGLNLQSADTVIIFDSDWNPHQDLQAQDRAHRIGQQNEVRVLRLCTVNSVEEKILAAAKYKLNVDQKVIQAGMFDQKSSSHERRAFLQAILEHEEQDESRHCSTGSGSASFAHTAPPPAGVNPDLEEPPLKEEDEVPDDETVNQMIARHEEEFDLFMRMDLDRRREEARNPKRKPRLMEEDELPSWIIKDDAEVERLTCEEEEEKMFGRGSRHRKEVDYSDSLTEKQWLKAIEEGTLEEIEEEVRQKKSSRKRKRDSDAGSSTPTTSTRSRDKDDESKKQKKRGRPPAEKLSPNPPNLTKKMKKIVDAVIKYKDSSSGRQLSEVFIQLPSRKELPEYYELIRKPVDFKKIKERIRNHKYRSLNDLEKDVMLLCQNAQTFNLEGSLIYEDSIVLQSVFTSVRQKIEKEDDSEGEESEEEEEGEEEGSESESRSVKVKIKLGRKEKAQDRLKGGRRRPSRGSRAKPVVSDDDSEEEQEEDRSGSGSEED

The first experiment concerns A549 cells. In words: High-throughput proliferation (HTP) assay for A549 cells (CellTiter-Glo, 7 days). The experiment is classed as cell-based. The settings on record: Homo sapiens, 168 h, read-out: A549 SMARCA2 IC50. The procedure:
Thawing vials: A549 cells (ATCC #CCL-185™) were thawed from a cryovial containing approximately 1.6×10^6 cells frozen in 70% F12K medium, 20% HI-FBS and 10% DMSO. Cells were thawed by submerging the bottom half of the vial in a 37° C. water bath and gently flicked until almost thawed. The cells were transferred into a 15 mL conical tube containing 9 mL of F12K medium+10% HI-FBS and then centrifuged at 200×g for 4 min before drawing off the media without disturbing the cell pellet in order to remove the DMSO. The cells were resuspended again in 15 mL of F12K fresh complete media+10% HI-FBS and grown up in a T75 flask at 37° C. with 5% CO2 Incubator. Viability was measured to obtain baseline.
Frozen stock vials preparation: The cell culture was transferred to a 50 mL conical tube, spun down to remove medium, and resuspended at 1-2×10^6 cells/mL in complete medium containing 10% DMSO. The culture was then stored for 24 hours at −80 degree C., (with the initial rate of freezing is −1 degree C. per minute in a freezing container), then transferred and stored in liquid nitrogen.
Routine subculture: Sub-confluent cultures (70-80%) were split every 4 days, seeding out at 1-2×10^6 cells/75 cm^2.
Day 0: Assay ready plates were prepared by dispensing 50 nL of compound or DMSO in the appropriate wells of 384-well white CulturPlates using Echo550. Using the Multiflo, A549 cells were plated at 50 μL/well in F12K complete media+10% HI-FBS+1% pen/strep at cell density determined [1,250 cells/mL (62.5 cells/well)] from growth curve.
Treated cells were incubated at 37° C., 5% CO2, relative humidity >90% for 7 days. CellTiter-Glo (CTG) ATP detection reagent was prepared according to manufacturer's specifications. Cell assay plates were removed from the incubator and brought to room temperature (RT). Using the MultiDrop liquid handler, 30 μL of CTG were added per well. Plates were placed on the multidrop dispenser shake for 5 seconds at room temperature (RT). Plates were incubated for 30 minutes in the dark at RT before measuring luminescence using the Envison2104.
Data analysis: Using the DMSO control wells as the 0% inhibition (high signal) control and the 10 μM Doxorubicin control wells as the 100% inhibition (low signal) control, percent inhibition EC50s (inflection point) and IC50 s were calculated for the compound dose responses.
A general note: In ATP-based viability assays light output follows the ATP content of the culture.
A word on the IC50: it is the concentration that inhibits the measured activity by half. Consider `O=C(Nc1cc(Cl)c(=O)n(CC(F)F)c1)c1cc(F)c(Cl)s1` [Compound 337], for which the IC50 is 769 nM.

With `N#Cc1[nH]c(C(=O)Nc2ccc(=O)n(CCF)c2)cc1Cl` [Compound 231], the half-maximal inhibitory concentration (IC50) was no less than 20000 nM.

Turning to `N#Cc1[nH]c(C(=O)Nc2ccc(=O)n(CC(F)(F)F)c2)cc1Cl` [Compound 234], the IC50 is no less than 20000 nM.

Regarding `N#Cc1cc(C(=O)Nc2cc(F)c(=O)n(CC(F)(F)F)c2)sc1Cl` [Compound 207], the IC50 was 892 nM.

In the case of `Cc1ncc(C(=O)Nc2cc(F)c(=O)n(CCF)c2)s1` [Compound 222], the half-inhibitory concentration (IC50) is no less than 20000 nM.

Take `Cn1c(C(=O)Nc2cc(F)c(=O)n(CCF)c2)cnc1C#N` [Compound 220]: the 50% inhibitory concentration (IC50) was no less than 20000 nM.

On to `N#Cc1[nH]c(C(=O)Nc2cc(C#N)c(=O)n(CCF)c2)cc1Cl` [Compound 238], for which the IC50 was determined as 7270 nM.

As to `N#Cc1[nH]c(C(=O)Nc2cc(Cl)c(=O)n(CC(F)(F)F)c2)cc1Cl` [Compound 237], the IC50 is no less than 20000 nM.

In the case of `O=C(Nc1cc(F)c(=O)n(CCF)c1)c1cc(Cl)c(F)s1` [Compound 251], the concentration for half-maximal inhibition (IC50) is 5460 nM.

For `CS(=O)(=O)c1csc(C(=O)Nc2cc(F)c(=O)n(CCF)c2)c1` [Compound 302], the IC50 is greater than 10000 nM.

Regarding `N#Cc1[nH]c(C(=O)Nc2cc(F)c(=O)n(CCF)c2)cc1Cl` [Compound 232], the IC50 is 15500 nM.

As for `O=C(Nc1cc(C(F)(F)F)c(=O)n(CC(F)F)c1)c1cc(F)c(Cl)s1` [Compound 336], the IC50 is greater than 10000 nM.

On to `CC(O)C#Cc1cc(C(=O)Nc2cc(F)c(=O)n(CC(F)F)c2)sc1Cl` (stereo not drawn) [Compound 339], for which the IC50 is greater than 10000 nM.

For `N#Cc1[nH]c(C(=O)Nc2cc(F)c(=O)n(CC(F)(F)F)c2)cc1Cl` [Compound 242], the 50% inhibitory concentration (IC50) is 17400 nM.

`COc1ncc(C(=O)Nc2cc(F)c(=O)n(CCF)c2)s1` [Compound 223]: the IC50 is no less than 20000 nM.

On to `CCn1cc(NC(=O)c2cc(Cl)c(C#N)[nH]2)cc(Cl)c1=O` [Compound 236], for which the half-inhibitory concentration (IC50) was no less than 20000 nM.

For the compound `N#Cc1cc(C(=O)Nc2ccc(=O)n(CCF)c2)sc1C#N` [Compound 182], the half-inhibitory concentration (IC50) is no less than 20000 nM.

Turning to `N#Cc1cc(NC(=O)c2cc(F)c(Cl)s2)cn(CC(F)F)c1=O` [Compound 338], the half-inhibitory concentration (IC50) was 3210 nM.

A further experiment has as its target T1, FL-SMARCA2 (full-length human SMARCA2 isoform 1) (Homo sapiens, UniProt P51531).
T1 construct: FLAG tag (YKDDDDK) (C); made in house; host or cells: Sf21 insect cells (baculovirus, pFastBacI)
In words: SMARCA2 ATPase activity assay (ADP-Glo, chicken mononucleosome substrate). In kind it is biochemical. The conditions noted are these: Table 3.1; ATPase assay, enzyme 5 nM, ATP 250 uM, chicken mononucleosome 10 nM, 30 min preincubation.
The compound `O=C(Nc1cc(Cl)c(=O)n(CC(F)F)c1)c1cc(F)c(Cl)s1` [Compound 337] showed an IC50 of 33.7 nM.

For the compound `N#Cc1[nH]c(C(=O)Nc2ccc(=O)n(CCF)c2)cc1Cl` [Compound 231], the half-inhibitory concentration (IC50) was found to be 142 nM.

In the case of `N#Cc1[nH]c(C(=O)Nc2ccc(=O)n(CC(F)(F)F)c2)cc1Cl` [Compound 234], the IC50 was determined as 478 nM.

With `N#Cc1cc(C(=O)Nc2cc(F)c(=O)n(CC(F)(F)F)c2)sc1Cl` [Compound 207], the IC50 was found to be 72.9 nM.

`Cc1ncc(C(=O)Nc2cc(F)c(=O)n(CCF)c2)s1` [Compound 222] displayed an IC50 of 1310 nM.

With `Cn1c(C(=O)Nc2cc(F)c(=O)n(CCF)c2)cnc1C#N` [Compound 220], the midpoint of inhibition, the IC50, lay at 488 nM.

For the compound `N#Cc1[nH]c(C(=O)Nc2cc(C#N)c(=O)n(CCF)c2)cc1Cl` [Compound 238], half-maximal inhibition (IC50) was put at 232 nM.

For the compound `N#Cc1[nH]c(C(=O)Nc2cc(Cl)c(=O)n(CC(F)(F)F)c2)cc1Cl` [Compound 237], the IC50 stood at 201 nM.

`O=C(Nc1cc(F)c(=O)n(CCF)c1)c1cc(Cl)c(F)s1` [Compound 251] returned an IC50 of 131 nM.

The compound `CS(=O)(=O)c1csc(C(=O)Nc2cc(F)c(=O)n(CCF)c2)c1` [Compound 302] displayed an IC50 greater than 50000 nM.

In the case of `N#Cc1[nH]c(C(=O)Nc2cc(F)c(=O)n(CCF)c2)cc1Cl` [Compound 232], the 50% inhibitory concentration (IC50) was found to be 24.9 nM.

The compound `O=C(Nc1cc(C(F)(F)F)c(=O)n(CC(F)F)c1)c1cc(F)c(Cl)s1` [Compound 336] displayed a half-inhibitory concentration (IC50) of 1240 nM.

On to `CC(O)C#Cc1cc(C(=O)Nc2cc(F)c(=O)n(CC(F)F)c2)sc1Cl` (stereo not drawn) [Compound 339], for which inhibition was half-maximal at 943 nM (IC50).

`N#Cc1[nH]c(C(=O)Nc2cc(F)c(=O)n(CC(F)(F)F)c2)cc1Cl` [Compound 242] yielded an IC50 of 38.9 nM.

As for `COc1ncc(C(=O)Nc2cc(F)c(=O)n(CCF)c2)s1` [Compound 223], the IC50 stood at 18400 nM.

The compound `CCn1cc(NC(=O)c2cc(Cl)c(C#N)[nH]2)cc(Cl)c1=O` [Compound 236] gave a 50% inhibitory concentration (IC50) of 125 nM.

For the compound `N#Cc1cc(C(=O)Nc2ccc(=O)n(CCF)c2)sc1C#N` [Compound 182], the IC50 came out at 35.5 nM.

For the compound `N#Cc1cc(NC(=O)c2cc(F)c(Cl)s2)cn(CC(F)F)c1=O` [Compound 338], the IC50 was 89 nM.

A further experiment concerns the target FL-SMARCA4 (Homo sapiens, UniProt P51532). In words: SMARCA4 ATPase activity assay (ADP-Glo, chicken mononucleosome substrate). The conditions noted are these: FL-SMARCA4 IC50, Table 3.2; ATPase assay, enzyme 5 nM, ATP 250 uM, chicken mononucleosome 10 nM, 30 min preincubation.
On to `O=C(Nc1cc(Cl)c(=O)n(CC(F)F)c1)c1cc(F)c(Cl)s1` [Compound 337], for which 104 nM corresponded to half-maximal inhibition (IC50).

On to `N#Cc1[nH]c(C(=O)Nc2ccc(=O)n(CCF)c2)cc1Cl` [Compound 231], for which the half-inhibitory concentration (IC50) is 544 nM.

For the compound `N#Cc1[nH]c(C(=O)Nc2ccc(=O)n(CC(F)(F)F)c2)cc1Cl` [Compound 234], the IC50 worked out at 1740 nM.

In the case of `N#Cc1cc(C(=O)Nc2cc(F)c(=O)n(CC(F)(F)F)c2)sc1Cl` [Compound 207], the concentration for half-maximal inhibition (IC50) was 342 nM.

As for `Cc1ncc(C(=O)Nc2cc(F)c(=O)n(CCF)c2)s1` [Compound 222], it took 10200 nM to reach half-maximal inhibition (IC50).

In the case of `Cn1c(C(=O)Nc2cc(F)c(=O)n(CCF)c2)cnc1C#N` [Compound 220], the IC50 came out at 1930 nM.

`N#Cc1[nH]c(C(=O)Nc2cc(C#N)c(=O)n(CCF)c2)cc1Cl` [Compound 238] showed a 50% inhibitory concentration (IC50) of 879 nM.

On to `N#Cc1[nH]c(C(=O)Nc2cc(Cl)c(=O)n(CC(F)(F)F)c2)cc1Cl` [Compound 237], for which the midpoint of inhibition, the IC50, lay at 863 nM.

The compound `O=C(Nc1cc(F)c(=O)n(CCF)c1)c1cc(Cl)c(F)s1` [Compound 251] displayed a 50% inhibitory concentration (IC50) of 623 nM.

On to `CS(=O)(=O)c1csc(C(=O)Nc2cc(F)c(=O)n(CCF)c2)c1` [Compound 302], for which the IC50 is greater than 50000 nM.

Compound `N#Cc1[nH]c(C(=O)Nc2cc(F)c(=O)n(CCF)c2)cc1Cl` [Compound 232] returned an IC50 of 111 nM.

As to `O=C(Nc1cc(C(F)(F)F)c(=O)n(CC(F)F)c1)c1cc(F)c(Cl)s1` [Compound 336], the IC50 is 5870 nM.

On to `CC(O)C#Cc1cc(C(=O)Nc2cc(F)c(=O)n(CC(F)F)c2)sc1Cl` (stereo not drawn) [Compound 339], for which the half-maximal inhibitory concentration (IC50) turned out to be 2320 nM.

`N#Cc1[nH]c(C(=O)Nc2cc(F)c(=O)n(CC(F)(F)F)c2)cc1Cl` [Compound 242] gave a 50% inhibitory concentration (IC50) of 168 nM.

Turning to `COc1ncc(C(=O)Nc2cc(F)c(=O)n(CCF)c2)s1` [Compound 223], the IC50 is greater than 50000 nM.

Compound `CCn1cc(NC(=O)c2cc(Cl)c(C#N)[nH]2)cc(Cl)c1=O` [Compound 236] gave an IC50 of 555 nM.

In the case of `N#Cc1cc(C(=O)Nc2ccc(=O)n(CCF)c2)sc1C#N` [Compound 182], the half-maximal inhibitory concentration (IC50) is 126 nM.

Take `N#Cc1cc(NC(=O)c2cc(F)c(Cl)s2)cn(CC(F)F)c1=O` [Compound 338]: the concentration for half-maximal inhibition (IC50) worked out at 363 nM.
